We go through 22 molecules from US20240025892A1 (priority 2020, published 2024).

As a reminder, the IC50 is the concentration needed to halve the response being measured.

One series has as its target SIK1 (Homo sapiens (Human), UniProt P57059). The experiment in a line: In vitro SIK1 kinase assay. Type of series: biochemical. The procedure:
(§1) Assays were performed in base reaction buffer (20 mM Hepes (pH 7.5), 10 mM MgCl2, 1 mM EGTA, 0.02% Brij35, 0.02 mg/mL BSA, 0.1 mM Na3VO4, 2 mM DTT, 1% DMSO). Compounds were dissolved in 100% DMSO in a 10 mM stock. […] Assays were performed for 20 minutes at room temperature, after which time ^33P-ATP (10 μCi/μL) was added followed by incubation for another 120 minutes at room temperature. Thereafter, radioactivity incorporated into the pEY peptide substrate was detected by filter-binding method. Kinase activity data were expressed as the percent remaining kinase activity in test samples compared to DMSO reactions. IC50 values and curve fits were obtained using Prism (GraphPad Software).

The target of a further series is SIK3 (Homo sapiens (Human), UniProt Q9Y2K2). The experiment in a line: In vitro SIK3 kinase assay. Type of series: biochemical. As to the method:
as §1

A further series concerns CRTC2 (TORC2). The experiment in a line: CRTC2 nuclear translocation (PathHunter U2OS). Type of series: cell-based. Particulars: maximal CRTC2 nuclear translocation, U2OS cells, 90 minutes, maximum dose 10 μM. The source says: PathHunter® Nuclear Translocation cell lines are engineered to co-express two fusion proteins: a) Enzyme Donor (ED) tagged target protein; b) an Enzyme Acceptor (EA) tagged TAZ domain, derived from the CBP/P300 transcription factor, that localizes to the nucleus. Activation of the signaling pathway induces translocation of the ED-tagged target protein into the nucleus, which will force complementation of the two enzyme fragments, and result in the formation of a functional enzyme that will hydrolyze substrate and generate a chemiluminescent signal. U2OS CRTC2 (TORC2) translocation assays were performed in 384 well plates at Eurofins DiscoverX (Freemont, CA). Cells were treated with compounds for 90 minutes in experimental duplicates in 5 point dose response format (4-fold serial dilutions with a maximum dose of 10 μM) followed by […] readout on an Envision 2104 Multilabel Reader. In all experiments, forskolin was used as a positive control and maximal CRTC2 nuclear translocation induced by each compound is expressed as a percentage of the signal stimulated by forskolin.
Representative data are shown in FIG. 4A and presented as percent of the positive control (forskolin) signal.

The next series has as its system RANKL. The experiment in a line: RANKL gene expression in Ocy454 cells (RT-qPCR).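 Note: Ocy454 cells moved to 37 °C for osteocytic differentiation before compound exposure, RANKL mRNA by SYBR Green qRT-PCR, 2^−ΔΔCT with β-actin normalization, duplicate wells.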 Particulars: maximal RANKL fold induction versus DMSO, four hours.
The target in a further series is Recombinant SIK2 (Homo sapiens (Human), UniProt Q9H0K1). The experiment in a line: biochemical. Particulars: recombinant SIK2 2.5 nM, 1 μM ATP; read-out: SIK2 IC50. As to the method:
as §1

Chain of SIK3 (Q9Y2K2 whole entry): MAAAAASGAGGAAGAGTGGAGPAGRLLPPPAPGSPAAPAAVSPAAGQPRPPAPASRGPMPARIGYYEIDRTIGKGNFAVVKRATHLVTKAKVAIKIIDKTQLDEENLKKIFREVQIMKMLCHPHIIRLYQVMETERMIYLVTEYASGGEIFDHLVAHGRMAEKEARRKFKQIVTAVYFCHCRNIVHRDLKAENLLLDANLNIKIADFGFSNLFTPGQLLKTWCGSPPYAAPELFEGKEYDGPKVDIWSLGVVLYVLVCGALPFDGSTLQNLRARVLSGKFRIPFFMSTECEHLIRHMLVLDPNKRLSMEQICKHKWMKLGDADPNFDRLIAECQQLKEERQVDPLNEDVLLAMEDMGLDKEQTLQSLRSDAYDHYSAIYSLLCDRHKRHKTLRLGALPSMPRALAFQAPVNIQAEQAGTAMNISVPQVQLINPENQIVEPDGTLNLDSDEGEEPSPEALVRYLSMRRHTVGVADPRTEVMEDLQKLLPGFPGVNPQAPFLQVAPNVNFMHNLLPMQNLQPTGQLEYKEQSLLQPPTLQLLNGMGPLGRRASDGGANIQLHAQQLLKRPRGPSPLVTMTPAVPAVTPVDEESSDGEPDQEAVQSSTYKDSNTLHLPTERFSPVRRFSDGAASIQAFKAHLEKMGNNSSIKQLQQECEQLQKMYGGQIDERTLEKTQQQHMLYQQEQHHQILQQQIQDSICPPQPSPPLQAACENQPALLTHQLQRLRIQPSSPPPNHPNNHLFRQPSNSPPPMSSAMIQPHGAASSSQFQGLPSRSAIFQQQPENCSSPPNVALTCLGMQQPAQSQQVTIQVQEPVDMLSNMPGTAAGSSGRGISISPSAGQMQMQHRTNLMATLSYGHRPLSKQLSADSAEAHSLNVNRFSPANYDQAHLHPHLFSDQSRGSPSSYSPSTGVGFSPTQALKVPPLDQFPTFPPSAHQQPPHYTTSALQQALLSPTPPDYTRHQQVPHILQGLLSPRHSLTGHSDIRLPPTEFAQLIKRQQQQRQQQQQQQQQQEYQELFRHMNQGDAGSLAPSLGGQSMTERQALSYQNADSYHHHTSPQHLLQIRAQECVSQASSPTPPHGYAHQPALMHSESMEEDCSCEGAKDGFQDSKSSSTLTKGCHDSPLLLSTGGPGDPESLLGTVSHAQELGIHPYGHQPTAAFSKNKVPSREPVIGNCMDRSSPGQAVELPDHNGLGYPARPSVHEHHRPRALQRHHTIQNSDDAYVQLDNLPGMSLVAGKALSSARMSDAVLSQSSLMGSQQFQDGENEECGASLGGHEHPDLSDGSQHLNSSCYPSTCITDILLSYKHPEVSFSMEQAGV
Chain of Recombinant SIK2 (Q9H0K1 whole entry): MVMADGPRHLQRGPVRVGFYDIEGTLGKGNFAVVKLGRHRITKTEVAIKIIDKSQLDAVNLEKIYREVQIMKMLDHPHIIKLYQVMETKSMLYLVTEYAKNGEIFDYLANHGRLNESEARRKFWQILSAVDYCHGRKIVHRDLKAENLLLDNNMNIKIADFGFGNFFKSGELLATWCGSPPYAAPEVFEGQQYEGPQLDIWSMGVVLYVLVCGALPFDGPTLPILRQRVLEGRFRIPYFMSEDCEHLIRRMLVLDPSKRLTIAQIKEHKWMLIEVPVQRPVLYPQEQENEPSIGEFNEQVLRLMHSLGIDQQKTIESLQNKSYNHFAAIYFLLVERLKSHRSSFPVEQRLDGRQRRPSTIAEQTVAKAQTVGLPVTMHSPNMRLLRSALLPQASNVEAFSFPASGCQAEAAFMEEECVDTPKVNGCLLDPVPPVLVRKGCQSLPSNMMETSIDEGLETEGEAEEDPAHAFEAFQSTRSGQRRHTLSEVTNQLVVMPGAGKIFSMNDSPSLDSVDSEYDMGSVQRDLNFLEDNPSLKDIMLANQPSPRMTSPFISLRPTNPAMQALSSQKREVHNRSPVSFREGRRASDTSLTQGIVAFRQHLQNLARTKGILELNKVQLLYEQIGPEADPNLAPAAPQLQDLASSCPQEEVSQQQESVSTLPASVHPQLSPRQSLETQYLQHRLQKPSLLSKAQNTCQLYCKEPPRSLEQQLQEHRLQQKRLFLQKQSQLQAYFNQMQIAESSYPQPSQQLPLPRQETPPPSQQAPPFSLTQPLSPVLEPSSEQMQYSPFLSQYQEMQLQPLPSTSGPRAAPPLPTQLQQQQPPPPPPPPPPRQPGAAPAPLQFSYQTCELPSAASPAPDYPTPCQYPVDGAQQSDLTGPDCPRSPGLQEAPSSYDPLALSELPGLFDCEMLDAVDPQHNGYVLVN
Chain of SIK1 (P57059 whole entry): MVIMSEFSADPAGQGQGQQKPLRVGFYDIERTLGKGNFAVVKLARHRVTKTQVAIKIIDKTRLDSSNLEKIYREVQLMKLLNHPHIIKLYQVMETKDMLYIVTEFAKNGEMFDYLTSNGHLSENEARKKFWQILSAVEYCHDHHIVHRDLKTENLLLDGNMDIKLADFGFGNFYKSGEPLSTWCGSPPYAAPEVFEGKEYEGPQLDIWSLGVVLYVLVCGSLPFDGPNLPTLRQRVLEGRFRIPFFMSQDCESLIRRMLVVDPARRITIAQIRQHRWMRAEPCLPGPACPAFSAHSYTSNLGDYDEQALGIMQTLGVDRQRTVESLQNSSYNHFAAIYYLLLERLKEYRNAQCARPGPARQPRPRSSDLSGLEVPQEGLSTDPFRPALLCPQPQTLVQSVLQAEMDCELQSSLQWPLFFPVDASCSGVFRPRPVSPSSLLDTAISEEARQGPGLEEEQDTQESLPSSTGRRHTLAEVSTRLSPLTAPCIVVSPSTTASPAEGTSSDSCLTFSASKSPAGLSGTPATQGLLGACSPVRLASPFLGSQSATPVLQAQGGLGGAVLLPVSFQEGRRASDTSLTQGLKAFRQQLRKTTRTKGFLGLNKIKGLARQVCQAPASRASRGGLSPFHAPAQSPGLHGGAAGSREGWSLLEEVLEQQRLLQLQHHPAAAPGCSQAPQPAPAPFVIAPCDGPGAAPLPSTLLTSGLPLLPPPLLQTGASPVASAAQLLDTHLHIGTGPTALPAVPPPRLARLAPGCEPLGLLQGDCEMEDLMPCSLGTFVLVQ

In the case of `CC1(COc2ccc3c(c2)ncn3-c2ccc3cccc(N4CC5(CC(N)C5)C4)c3n2)COC1` [Example 2, 2-[2-[5-[(3-Methyloxetan-3-yl)methoxy]benzimidazol-1-yl]-8-quinolyl]-2-azaspiro[3.3]heptan-6-amine], the IC50 is 625 nM against SIK1, 38.7 nM on SIK3 and 42.1 nM on Recombinant SIK2. The “CRTC2 Efficacy (% of forskolin)” value in the series on CRTC2 (TORC2) is 162 % of forskolin. In addition, in the series on RANKL, the “RANKL Fold Induction” value was determined as 1.43 fold.

On to `CC1(COc2ccc3c(c2)ncn3-c2ccc3cccc(N4CCCC4CN)c3n2)COC1` (stereo not drawn) [Example 8, (1-(2-(5-((3-methyloxetan-3-yl)methoxy)-1H-benzo[d]imidazol-1-yl)quinolin-8-yl)pyrrolidin-2-yl)methanamine], for which the IC50 at SIK1 turned out to be 50.1 nM; at SIK3, 30.8 nM; on Recombinant SIK2, 11.6 nM. Further, in the series with CRTC2 (TORC2), the “CRTC2 Efficacy (% of forskolin)” value is listed as 64.4 % of forskolin. Moreover, the “RANKL Fold Induction” value in the series on RANKL came to 17.47 fold.

For the molecule `CC1(COc2ccc3c(c2)ncn3-c2ccc3cccc(C4CCNC4)c3n2)COC1` (stereo not drawn) [Example 16, 2-(5-((3-Methyloxetan-3-yl)methoxy)-1H-benzo[d]imidazol-1-yl)-8-(pyrrolidin-3-yl)quinoline], the half-inhibitory concentration (IC50) against SIK1 worked out at 16.6 nM; on SIK3, 4.43 nM; at Recombinant SIK2, 3.39 nM. Besides, the “RANKL Fold Induction” value in the series on RANKL amounted to 27.76 fold.

Consider `CN1CCC(c2cccc3ccc(-n4cnc5cc(OCC6(C)COC6)ccc54)nc23)C1` (stereo not drawn) [Example 17, 2-(5-((3-Methyloxetan-3-yl)methoxy)-1H-benzo[d]imidazol-1-yl)-8-(1-methylpyrrolidin-3-yl)quinoline], for which the half-maximal inhibitory concentration (IC50) against SIK1 stood at 53.3 nM; on SIK3, 15.4 nM; at Recombinant SIK2 it was 1.04 nM. The “RANKL Fold Induction” value with RANKL is reported as 12.73 fold.

On to `Cc1ccc(CNC(=O)c2ccn3c(-c4ccc(C#N)cc4)cnc3c2)cn1` [Example 19, 3-(4-cyanophenyl)-N-[(6-methyl-3-pyridyl)methyl]imidazo[1,2-a]pyridine-7-carboxamide], for which the “CRTC2 Efficacy (% of forskolin)” value in the series with CRTC2 (TORC2) is 27 % of forskolin. Moreover, in the series with RANKL, the “RANKL Fold Induction” value amounted to 1.04 fold.

Regarding `Cn1c(CNC(=O)c2ccn3c(-c4ccc(C#N)cc4)cnc3c2)nc2ccccc21` [Example 23, 3-(4-cyanophenyl)-N-((1-methyl-1H-benzo[d]imidazol-2-yl)methyl)imidazo[1,2-a]pyridine-7-carboxamide], the half-maximal inhibitory concentration (IC50) on SIK3 is 861 nM; on Recombinant SIK2, 14.3 nM. For the same molecule, the “CRTC2 Efficacy (% of forskolin)” value in the series with CRTC2 (TORC2) is 19.8 % of forskolin.

As for `N#Cc1ccc(-c2cnc3cc(C(=O)NCc4nc5ccccc5o4)ccn23)cc1` [Example 26, N-(benzo[d]oxazol-2-ylmethyl)-3-(4-cyanophenyl)imidazo[1,2-a]pyridine-7-carboxamide], the “CRTC2 Efficacy (% of forskolin)” value in the series on CRTC2 (TORC2) is 1.3 % of forskolin. Also, the “RANKL Fold Induction” value in the series with RANKL amounted to 0.55 fold. On Recombinant SIK2, the IC50 stood at 83 nM.

In the case of `N#Cc1ccc(-c2cnc3cc(C(=O)NCc4ccco4)ccn23)cc1` [Example 27, 3-(4-cyanophenyl)-N-(furan-2-ylmethyl)imidazo[1,2-a]pyridine-7-carboxamide], in the series with CRTC2 (TORC2), the “CRTC2 Efficacy (% of forskolin)” value is reported as 5.3 % of forskolin. In addition, the IC50 at Recombinant SIK2 was 132 nM.

For the molecule `N#Cc1ccc(-c2cnc3cc(C(=O)N4CCn5c(nc6ccccc65)C4)ccn23)cc1` [Example 28, 4-(7-(1,2,3,4-tetrahydrobenzo[4,5]imidazo[1,2-a]pyrazine-2-carbonyl)imidazo[1,2-a]pyridin-3-yl)benzonitrile], the half-maximal inhibitory concentration (IC50) was 8090 nM against SIK3 and 597 nM on Recombinant SIK2. Besides, the “CRTC2 Efficacy (% of forskolin)” value in the series on CRTC2 (TORC2) was 3.4 % of forskolin. Also, in the series on RANKL, the “RANKL Fold Induction” value turned out to be 1.25 fold.

On to `CN(Cc1nc2ccccc2n1C)C(=O)c1ccn2c(-c3ccc(C#N)cc3)cnc2c1` [Example 29, 3-(4-Cyanophenyl)-N-methyl-N-[(1-methylbenzimidazol-2-yl)methyl]imidazo[1,2-a]pyridine-7-carboxamide], for which the figures for the half-maximal inhibitory concentration (IC50) against SIK3 and on Recombinant SIK2 were 8340 nM and 608 nM, respectively. For the same molecule, the “CRTC2 Efficacy (% of forskolin)” value in the series on CRTC2 (TORC2) is listed as 2.8 % of forskolin. Further, the “RANKL Fold Induction” value in the series with RANKL came to 1.48 fold.

Take `Cc1ccc(CN(C)C(=O)c2ccn3c(-c4ccc(C#N)cc4)cnc3c2)cn1` [Example 30, 3-(4-Cyanophenyl)-N-methyl-N-((6-methylpyridin-3-yl)methyl)imidazo[1,2-a]pyridine-7-carboxamide]: the “CRTC2 Efficacy (% of forskolin)” value in the series with CRTC2 (TORC2) is given as 1.7 % of forskolin. In addition, on Recombinant SIK2, the IC50 worked out at 1700 nM.

Take `N#Cc1ccc(-n2cnc3cc(C(=O)NCc4nc5ccccc5[nH]4)ccc32)cc1` [Example 34, N-((1H-benzo[d]imidazol-2-yl)methyl)-1-(4-cyanophenyl)-1H-benzo[d]imidazole-5-carboxamide]: the “CRTC2 Efficacy (% of forskolin)” value with CRTC2 (TORC2) is 14 % of forskolin. In addition, the concentration for half-maximal inhibition (IC50) on Recombinant SIK2 turned out to be 20 nM.

For the molecule `N#Cc1ccc(-c2cnc3nc(C(=O)NCc4cccnc4)ccn23)cc1` [Example 36, 3-(4-cyanophenyl)-N-(3-pyridylmethyl)imidazo[1,2-a]pyrimidine-7-carboxamide], the “CRTC2 Efficacy (% of forskolin)” value in the series with CRTC2 (TORC2) was 2.5 % of forskolin. Besides, at Recombinant SIK2, the 50% inhibitory concentration (IC50) came to 5300 nM.

For `CC1(COc2ccn3c(-c4ccc(C#N)cc4)cnc3c2)COC1` [Example 38, 4-[7-[(3-Methyloxetan-3-yl)methoxy]imidazo[1,2-a]pyridin-3-yl]benzonitrile], the “CRTC2 Efficacy (% of forskolin)” value in the series on CRTC2 (TORC2) is reported as 10.1 % of forskolin. Further, the “RANKL Fold Induction” value in the series on RANKL is given as 0.37 fold. Further, the 50% inhibitory concentration (IC50) on Recombinant SIK2 amounted to 211 nM.

With `CCc1nnc(-c2c(OC)cc(-c3cnc4cc(OCC5(C)COC5)ccn34)cc2OC)o1` [Example 39, 2-(2,6-dimethoxy-4-(7-((3-methyloxetan-3-yl)methoxy)imidazo[1,2-a]pyridin-3-yl)phenyl)-5-ethyl-1,3,4-oxadiazole], the concentration for half-maximal inhibition (IC50) turned out to be 2680 nM at SIK1, 83.6 nM on SIK3 and 136 nM on Recombinant SIK2.

For `Cc1ccc(CCOc2ccn3c(-c4ccc(C#N)cc4)cnc3c2)cn1` [Example 41, 4-[7-[2-(6-Methyl-3-pyridyl)ethoxy]imidazo[1,2-a]pyridin-3-yl]benzonitrile], the IC50 turned out to be 233 nM against SIK1 and 12.6 nM at SIK3. Also, the “CRTC2 Efficacy (% of forskolin)” value in the series on CRTC2 (TORC2) was 44.2 % of forskolin. For the same molecule, the “RANKL Fold Induction” value with RANKL is recorded as 2.61 fold.

Turning to `CCc1nnc(-c2c(OC)cc(-c3cnc4cc(OCc5ccc(C)nc5)ccn34)cc2OC)o1` [Example 42, 2-[2,6-Dimethoxy-4-[7-[(6-methyl-3-pyridyl)methoxy]imidazo[1,2-a]pyridin-3-yl]phenyl]-5-ethyl-1,3,4-oxadiazole], the half-inhibitory concentration (IC50) on SIK1 is 1180 nM; against SIK3 it was 47 nM; on Recombinant SIK2 it was 37 nM.

As for `CCn1cc(-c2ccn3c(-c4ccc(C#N)cc4)cnc3c2)cn1` [Example 45, 4-[7-(1-Ethylpyrazol-4-yl)imidazo[1,2-a]pyridin-3-yl]benzonitrile], the “CRTC2 Efficacy (% of forskolin)” value in the series on CRTC2 (TORC2) is listed as 85 % of forskolin. Further, the “RANKL Fold Induction” value with RANKL came out at 9.41 fold.

As for `CCn1cc(-c2ccn3c(-c4ccc(C#N)c(C)c4)cnc3c2)cn1` [Example 47, 4-(7-(1-ethyl-1H-pyrazol-4-yl)imidazo[1,2-a]pyridin-3-yl)-2-methylbenzonitrile], the results for the half-inhibitory concentration (IC50) at SIK1, against SIK3 and at Recombinant SIK2 were 8.34 nM, 4.16 nM and 0.855 nM, respectively. Besides, the “RANKL Fold Induction” value in the series on RANKL is listed as 17.43 fold.

For `CCc1nnc(-c2c(OC)cc(-c3cnn4cc(-c5cnn(C6CC6)c5)ccc34)cc2OC)o1` [Example 53, 2-(4-(6-(1-cyclopropyl-1H-pyrazol-4-yl)pyrazolo[1,5-a]pyridin-3-yl)-2,6-dimethoxyphenyl)-5-ethyl-1,3,4-oxadiazole], the values for the IC50 against SIK1, at SIK3 and at Recombinant SIK2 were 17.4 nM, 2.62 nM and 1.77 nM, respectively.

Turning to `COc1cc(-c2cnc3cc(-c4cnn(C)c4)ccn23)cc(OC)c1-c1nnc(C2CC2)o1` [Example 60, 2-cyclopropyl-5-(2,6-dimethoxy-4-(7-(1-methyl-1H-pyrazol-4-yl)imidazo[1,2-a]pyridin-3-yl)phenyl)-1,3,4-oxadiazole], the IC50 at SIK1 was 4.45 nM; on SIK3, 1.64 nM; at Recombinant SIK2, 1.49 nM. Moreover, in the series with RANKL, the “RANKL Fold Induction” value is 307.25 fold.

On to `CCn1cc(-c2ccn3c(-c4ccc(-c5noc(C)n5)cc4)cnc3c2)cn1` [Example 62, 3-(4-(7-(1-Ethyl-1H-pyrazol-4-yl)imidazo[1,2-a]pyridin-3-yl)phenyl)-5-methyl-1,2,4-oxadiazole], for which the half-inhibitory concentration (IC50) worked out at 1130 nM against SIK1, 1090 nM against SIK3 and 253 nM on Recombinant SIK2. In addition, the “CRTC2 Efficacy (% of forskolin)” value in the series with CRTC2 (TORC2) is 8.6 % of forskolin.
